Tests used:
[1] = Open-label multiple-dose PK, safety and tolerability study of NTZ 500 mg BID for 7 days in subjects with moderate or severe hepatic impairment vs normal hepatic function; details: for Cmax: Cmax GM; for AUC0-12 GM Ratio (Impaired/Control) / AUC0-t GM Ratio (Impaired/Control) / Cmax GM Ratio (Impaired/Control): steady state; for correlation coefficient AUC0-12 vs ALT / correlation coefficient AUC0-12 vs AST / correlation coefficient AUC0-12 vs Albumin / correlation coefficient AUC0-12 vs Bilirubin / correlation coefficient AUC0-12 vs INR / correlation coefficient Cmax vs ALT / correlation coefficient Cmax vs AST / correlation coefficient Cmax vs Albumin / correlation coefficient Cmax vs Bilirubin / correlation coefficient Cmax vs INR: highest among Pearson (P) and Spearman (S), natural (NS) and log (LS) scales, marker at screening
Protocol: The study design was an open-label, nonrandomized, 2-center, multiple-dose, parallel-group study to evaluate the PK as well as the safety and tolerability of NTZ 500 mg BID administration for 7 days in males and females patients with moderate and severe hepatic impairment as compared to matched control healthy males and females patients with normal hepatic function.
The objective was to assess the effect of hepatic impairment on the PK of tizoxanide (TZ; NTZ active metabolite), following repeated oral dose administration of NTZ 500 mg BID for 7 days in subjects with moderate or severe hepatic impairment and subjects with normal hepatic function.
The following parameters used to measure the hepatic function were considered for the evaluation of the degree of hepatic impairment on NTZ PK: Child-Pugh (CP) score (*), serum albumin, serum total bilirubin, international normalized ratio (INR), aspartate aminotransferase (AST), alanine aminotransferase (ALT).
(*) For the control match healthy subject group, CP score was not calculated, and the analysis was limited to hepatic impaired patients.
Subjects were enrolled within the following groups based on their CP score at Screening: • Group 1: Normal hepatic function • Group 2: Moderate hepatic impairment (CP Class B) • Group 3: Severe hepatic impairment (CP Class C)
On Day 1, the study subjects took 500 mg NTZ (1 tablet) with 240 mL (8 fluid ounces) of water 30 minutes after the start of the standardized breakfast. No food was allowed for at least 4 h after each dose. Blood PK samples were taken at the following timepoints: pre-dose (completed in fasted state prior to the start of the standardized breakfast), T1h, T2h, T3h, T4h, T5h, T6h, T7h, T8h, T10h and T12h post-dose.
From Day 2 to Day 6, subjects received 500 mg of nitazoxanide (1 tablet) in the morning and in the evening for 6 consecutive days and on Day 7 the last dose was administered in the morning. Pre-dose blood PK sample was collected in fasted state prior to the start of the standardized breakfast each morning from Day 2 to Day 6.
On Day 7, blood PK samples were taken at the following timepoints: Pre-dose (completed in fasted state prior to the start of the standardized breakfast), T1h, T2h, T3h, T4h, T5h, T6h, T7h, T8h, T10h, T12h, T14h and T16h post-dose. PK samples at T18h, T24h and T48h post dose were taken respectively on D8 and D9.
The primary analysis was to assess the difference in the PK parameters (Cmax, AUC0-12 and AUC0-t) of total TZ after repeated oral administration of NTZ 500 mg BID for 7 days in subjects with moderate or severe hepatic impairment and subjects with normal hepatic function.
The secondary analysis was to determine the accumulation ratios on AUC0-12 and Cmax measured after a single (Day 1) and a 7-day repeated (BID) oral administrations.
The relationship between hepatic function markers (serum albumin, serum total bilirubin, INR, AST and ALT (obtained at screening)) and PK parameters (Cmax and AUC0-12) for TZ and TZ Glu (total and unbound) were investigated and evaluated using graphical and correlation techniques.
Both Pearson (supporting a linear trend) and Spearman correlation (supporting a monotonic trend) coefficients were calculated. The correlation coefficients (p) were used to measure appropriately the association for most possible relationship and only strong correlations (i.e. p≥0.75) would support further modeling.

[2] = test system: BDL+LPS-induced liver impairment rat model; test: Evaluation of NTZ efficacy on BDL+LPS-induced liver impairment in rats; type: in vivo, Sprague Dawley rats
Protocol: The objective of the study was to assess the efficacy of NTZ to prevent LPS-induced inflammation, hepatic dysfunction and brain edema in fibrotic rats that underwent BDL surgery. BDL surgery was performed on 30 Sprague Dawley rats (Janvier). After anesthesia, a median laparotomy was performed to expose the liver and duodenum. The main bile duct was identified and dissected. After that, the bile duct was ligated in two parts: a first ligation was made in the middle of the bile duct, and the second ligation was made above the entrance of the pancreatic duct. The bile duct was then cut in the middle, to avoid recanalization. Fourteen days after surgery, a blood sample was collected from the sublingual vein to measure markers of hepatic injury (serum aspartate aminotransferase (AST), total bile acids and bilirubin) to stratify the animals into treatment groups. […] Two unoperated animals were included in the study as healthy controls. […] Nine rats with BDL received phosphate buffer saline (PBS, Fisher Scientific, USA) instead of LPS to be used as BDL controls. The body weight and food intake were monitored twice a week all along the study. During the fibrosis induction phase, each animal was observed once a day for the monitoring of clinical signs. Observations include changes in the skin, fur, eyes, occurrence of secretions and excretions and autonomic activity (lachrymation, piloerection, unusual respiratory pattern). Changes in gait, posture, stereotypes (e.g. excessive grooming, repetitive circling) or bizarre behavior (self-mutilation, walking backward) are also monitored. Animals were euthanized in case of weight loss of more than 25% for more than 3 consecutive days, absence of food consumption, deterioration of the general condition or vocalization. After LPS administration, each animal was continuously observed (appearance of the animal-change in fur, skin color, the degree of activity, vigilance-response to a stimulus, opening of the eyelids, activity, gait and behaviour) during 7 hours in order to assess the degree of severity of the inflammatory response and pain. Treatment with NTZ 100 mg/kg or vehicle (1% carboxymethylcellulose ([…], Sigma-Aldrich), 0.1% tween 80 ([…], Sigma-Aldrich)) was administered by gavage 1 hour before LPS injection. For oral gavage, NTZ powder was dissolved in CMC 1%, Tween 80 0.1% at the concentration of 10 mg/ml in an amber glass bottle, homogenized with a polytron and sonicated 10 seconds at a power of 10%. NTZ was kept under magnetic stirring until the administration to the rats at 10 ml/kg. LPS solution was prepared under a microbiological safety cabinet, in order to have a sterile solution to inject to rats. The LPS solution was dissolved in phosphate buffer saline (PBS) at 0.5 μg/ml, aliquoted and frozen until the day of experiment. LPS was administered at 2 ml/kg to the rats. All surviving animals were euthanized 3 h after LPS injection for plasma and tissues analyses. At the end of the study, by plasma level of hepatic function markers and cytokines, and brain edema have been evaluated.

[3] = NTZ 100 mg/kg by gavage 1 hour before LPS, blood collected 3 hours after LPS
[4] = total TZ, all groups combined, listed as Total TZ
[5] = total TZ, Moderate (CP B) vs Control
[6] = total TZ, Severe (CP C) vs Control

CC(=O)Oc1ccccc1C(=O)Nc1ncc([N+](=O)[O-])s1 [NTZ, nitazoxanide]
safety in patients with hepatic impairment ([1]; NTZ 500 mg BID for 7 days): safe | brain edema: change of brain water content compared to the BDL condition ([2]; NTZ 100 mg/kg by gavage 1 hour before LPS, 3 h after LPS, p=0.006): −111% | decrease of circulating IL-1β [2, 3]: 91% | decrease of circulating IL-6 [2, 3]: 93% | decrease of circulating TNFα [2, 3]: 94% | percentage of liver fibrosis ([2]; NTZ 100 mg/kg by gavage 1 hour before LPS, euthanized 3 h after LPS, data not shown): Neither LPS nor NTZ treatment affected the percentage of liver fibrosis | LPS-induced alteration of plasma total bile acids, total bilirubin, albumin and GGT ([2]; NTZ 100 mg/kg by gavage 1 hour before LPS, plasma 3 h after LPS): tended to reduce the LPS-induced alteration of these markers | reduction of plasma urea (LPS-induced renal impairment) ([2]; NTZ 100 mg/kg by gavage 1 hour before LPS, plasma 3 h after LPS, p=0.007): 84% | reduction of plasma ASAT compared to the ACLF-Veh condition ([2]; NTZ 100 mg/kg by gavage 1 hour before LPS, plasma 3 h after LPS, p=0.01): 100% | reduction of plasma ALAT compared to the ACLF-Veh condition ([2]; NTZ 100 mg/kg by gavage 1 hour before LPS, plasma 3 h after LPS, p=0.03): 101% | LPS-induced rise in ALT, change with NTZ ([2]; NTZ 100 mg/kg, conclusions): −101% | LPS-induced rise in AST, change with NTZ ([2]; NTZ 100 mg/kg, conclusions): −100% | LPS-induced rise in urea, change with NTZ ([2]; NTZ 100 mg/kg, conclusions): −84% | brain edema: water content (in words) ([2]; NTZ 100 mg/kg, conclusions): totally restored the water content to the level of BDL and healthy rats

O=C(Nc1ncc([N+](=O)[O-])s1)c1ccccc1O [TZ, tizoxanide]
fraction of the dose recovered in urine over 12 h ([1]; Day 1 and Day 7, regardless of the group): less than 1% | Tmax ([1]; both, human, blood, oral, 500 mg): 3.5 to 5 h | AUC(0-t) ([1]; both, human, blood, oral, 500 mg, AUC0-12 GM, total TZ, all groups combined (Total), DAY 1, single 500 mg NTZ dose): 115 µM·h | AUC(0-t) ([1]; both, human, blood, oral, 500 mg, AUC0-12 GM, total TZ, all groups combined (Total), DAY 7, NTZ 500 mg BID): 183 µM·h | AUC(0-t) ([1]; both, human, blood, oral, 500 mg, AUC0-12 GM, total TZ, steady state after NTZ 500 mg BID 7 days, Moderate (CP B)): 145 µM·h | AUC(0-t) ([1]; both, human, blood, oral, 500 mg, AUC0-12 GM, total TZ, steady state after NTZ 500 mg BID 7 days, Severe (CP C)): 264 µM·h | AUC(0-t) ([1]; both, human, blood, oral, 500 mg, AUC0-t GM, total TZ, steady state after NTZ 500 mg BID 7 days, Control group (normal hepatic function)): 165 µM·h | AUC(0-t) ([1]; both, human, blood, oral, 500 mg, AUC0-t GM, total TZ, steady state after NTZ 500 mg BID 7 days, Moderate (CP B)): 150 µM·h | AUC(0-t) ([1]; both, human, blood, oral, 500 mg, AUC0-t GM, total TZ, steady state after NTZ 500 mg BID 7 days, Severe (CP C)): 297 µM·h | Cmax ([1]; both, human, blood, oral, 500 mg, total TZ, all groups combined (Total), DAY 1, single 500 mg NTZ dose): 24.8 µM | Cmax ([1]; both, human, blood, oral, 500 mg, total TZ, all groups combined (Total), DAY 7, NTZ 500 mg BID): 34.7 µM | Cmax ([1]; both, human, blood, oral, 500 mg, total TZ, steady state after NTZ 500 mg BID 7 days, Control group (normal hepatic function)): 35.3 µM | Cmax ([1]; both, human, blood, oral, 500 mg, total TZ, steady state after NTZ 500 mg BID 7 days, Moderate (CP B)): 28.2 µM | Cmax ([1]; both, human, blood, oral, 500 mg, total TZ, steady state after NTZ 500 mg BID 7 days, Severe (CP C)): 42 µM | half-life ([1]; both, human, blood, oral, 500 mg, GM t1/2, Day 1): ~2 h | half-life ([1]; both, human, blood, oral, 500 mg, GM t1/2, Day 7, severe impairment group): 4 h | AUC(0-t) ([1]; both, human, in vivo, oral, 500 mg, AUC0-12 GM, total TZ, steady state after NTZ 500 mg BID 7 days, Control group (normal hepatic function)): 162 µM·h | CL renal ([1]; both, human, urine, oral, 500 mg): 0.0333 to 0.5 mL/min | AUC0-12 accumulation GM Ratio (Day 7/Day 1) [1, 4]: 1.5980 | Cmax accumulation GM Ratio (Day 7/Day 1) [1, 4]: 1.3993 | Cmax accumulation GM Ratio (Day 7/Day 1) ([1]; total TZ, all groups combined, listed as total TZ): around 1.4 | AUC0-12 GM Ratio (Impaired/Control) [1, 5]: 0.8960 | AUC0-t GM Ratio (Impaired/Control) [1, 5]: 0.9064 | Cmax GM Ratio (Impaired/Control) [1, 5]: 0.8008 | AUC0-12 GM Ratio (Impaired/Control) [1, 6]: 1.6353 | AUC0-t GM Ratio (Impaired/Control) [1, 6]: 1.7940 | Cmax GM Ratio (Impaired/Control) ([1]; total TZ, Severe (CP C) vs Control, listed as Total TZ): 1.1921 | Cmax GM Ratio (Impaired/Control) ([1]; total TZ, Severe (CP C) vs Control, listed as total TZ): 1.19 | correlation coefficient AUC0-12 vs ALT ([1]; total analyte): P (LS): −0.07 | correlation coefficient AUC0-12 vs AST ([1]; total analyte): P (NS): 0.17 | correlation coefficient AUC0-12 vs Albumin ([1]; total analyte): P (NS): −0.4 | correlation coefficient AUC0-12 vs Bilirubin ([1]; total analyte): P (NS): 0.43 | correlation coefficient AUC0-12 vs INR ([1]; total analyte): P (NS): 0.46 | correlation coefficient Cmax vs ALT ([1]; total analyte): P (LS): −0.17 | correlation coefficient Cmax vs AST ([1]; total analyte): P (LS): −0.05 | correlation coefficient Cmax vs Albumin ([1]; total analyte): P (NS): −0.25 | correlation coefficient Cmax vs Bilirubin ([1]; total analyte): P (NS): 0.47 | correlation coefficient Cmax vs INR ([1]; total analyte): P (NS): 0.46 | correlation coefficient AUC0-12 vs ALT ([1]; unbound (u-) analyte): P (LS): −0.06 | correlation coefficient AUC0-12 vs AST ([1]; unbound (u-) analyte): P (NS): 0.15 | correlation coefficient AUC0-12 vs Albumin ([1]; unbound (u-) analyte): P (NS): −0.37 | correlation coefficient AUC0-12 vs Bilirubin ([1]; unbound (u-) analyte): P (NS): 0.47 | correlation coefficient AUC0-12 vs INR ([1]; unbound (u-) analyte): P (NS): 0.5 | correlation coefficient Cmax vs ALT ([1]; unbound (u-) analyte): P (LS): −0.15 | correlation coefficient Cmax vs AST ([1]; unbound (u-) analyte): S (NS): −0.09 | correlation coefficient Cmax vs Albumin ([1]; unbound (u-) analyte): P (NS): −0.24 | correlation coefficient Cmax vs INR ([1]; unbound (u-) analyte): P (NS): 0.49 | correlation coefficient Cmax vs Bilirubin ([1]; unbound (u-) analyte, listed as u-Tizoxanide): P (NS): 0.51 | correlation coefficient Cmax vs Bilirubin ([1]; unbound (u-) analyte, listed as unbound TZ): 0.51
